Assay results taken from patent US20080004274A1, “Novel biaromatic compounds that modulate PPAR type receptors and cosmetic/pharmaceutical compositions comprised thereof” (GALDERMA RESEARCH & DEVELOPMENT, priority 2004, published 2008).

How the values were obtained:
Format in all cases: cell-based
PPARα = molecular target: T1, PPARα (Homo sapiens, UniProt Q07869); test: Cross-curve PPAR transactivation test, PPARα; details: HeLN cells, stable transfectants ERE-βGlob-Luc-SV-Neo and Gal-hPPARα; luciferase; cross curves against reference agonist, Schild regression; n.a. means not active; read-out: PPAR alpha Kd app
T1 construct: the reporter is ERE-βGlob-Luc
T1 sequence (Q07869 200-468 limits assumed): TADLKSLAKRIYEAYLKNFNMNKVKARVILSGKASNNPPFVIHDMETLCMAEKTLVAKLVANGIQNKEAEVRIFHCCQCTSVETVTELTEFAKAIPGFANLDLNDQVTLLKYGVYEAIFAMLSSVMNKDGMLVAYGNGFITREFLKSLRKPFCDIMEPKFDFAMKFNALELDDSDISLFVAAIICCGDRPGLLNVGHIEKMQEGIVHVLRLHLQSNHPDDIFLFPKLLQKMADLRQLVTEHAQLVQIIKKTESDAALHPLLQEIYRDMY
Description: (§1) The activation of the receptors with an agonist (activator) in HeLN cells leads to the expression of a reporter gene, luciferase, which, in the presence of a substrate, generates light. The modulation of the receptors is measured by quantifying the luminescence produced after incubating the cells in the presence of a reference agonist. The ligands displace the agonist from its site. The measurement of the activity is performed by quantifying the light produced. This measurement makes it possible to determine the modulatory activity of the compounds according to the invention by determining the constant that is the affinity of the molecule for the receptor. Since this value can fluctuate depending on the basal activity and the expression of the receptor, it is referred to as Kd apparent (KdApp in nM).
(§2) To determine this constant, “cross curves” of the test product against a reference agonist are produced in a 96-well plate: 10 concentrations of the test product plus a concentration 0 are arranged in a line, and 7 concentrations of the agonist plus a concentration 0 are arranged in a column. This is 88 measurement points for 1 product and 1 receptor. The remaining 8 wells are used for repeatability controls.
(§3) Measurements are also taken for total agonist controls with the same products.
(§4) The HeLN cell lines used are stable transfectants containing the plasmids ERE-βGlob-Luc-SV-Neo (reporter gene) and PPAR (α, δ, γ) Gal-hPPAR. These cells are inoculated into 96-well plates at a rate of 10 000 cells per well in 100 μl of DMEM medium without phenol red and supplemented with 10% of defatted calf serum. The plates are then incubated at 37° C. and 7% CO2 for 16 hours.
(§5) The various dilutions of the test products and of the reference ligand are added at a rate of 5 μl per well. The plates are then incubated for 18 hours at 37° C. and 7% CO2. The culture medium is removed by turning over and 100 μl of a 1:1 PBS/luciferin mixture are added to each well. After 5 minutes, the plates are read by the luminescence detector.

PPARγ = molecular target: T2, PPARγ (Homo sapiens, UniProt P37231); test: Cross-curve PPAR transactivation test, PPARγ; details: HeLN cells, stable transfectants ERE-βGlob-Luc-SV-Neo and Gal-hPPARγ; luciferase; cross curves against reference agonist, Schild regression; n.a. means not active; read-out: PPAR gamma Kd app
T2 construct: the reporter is ERE-βGlob-Luc
T2 sequence (P37231 238-505 limits assumed): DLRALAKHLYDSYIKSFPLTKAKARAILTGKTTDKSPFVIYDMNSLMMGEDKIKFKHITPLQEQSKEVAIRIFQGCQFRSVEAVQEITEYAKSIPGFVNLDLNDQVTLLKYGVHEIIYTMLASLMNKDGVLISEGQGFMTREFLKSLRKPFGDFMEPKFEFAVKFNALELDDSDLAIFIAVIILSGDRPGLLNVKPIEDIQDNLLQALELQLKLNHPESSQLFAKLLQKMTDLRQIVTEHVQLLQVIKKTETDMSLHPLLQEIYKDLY
Description: as §1, §2, §3, §4, §5

PPARδ = molecular target: T3, PPARδ (Homo sapiens, UniProt Q03181); test: Cross-curve PPAR transactivation test, PPARδ; details: HeLN cells, stable transfectants ERE-βGlob-Luc-SV-Neo and Gal-hPPARδ; luciferase; cross curves against reference agonist, Schild regression; n.a. means not active; read-out: PPARs delta Kd app
T3 construct: the reporter is ERE-βGlob-Luc
T3 sequence (Q03181 171-441 limits assumed): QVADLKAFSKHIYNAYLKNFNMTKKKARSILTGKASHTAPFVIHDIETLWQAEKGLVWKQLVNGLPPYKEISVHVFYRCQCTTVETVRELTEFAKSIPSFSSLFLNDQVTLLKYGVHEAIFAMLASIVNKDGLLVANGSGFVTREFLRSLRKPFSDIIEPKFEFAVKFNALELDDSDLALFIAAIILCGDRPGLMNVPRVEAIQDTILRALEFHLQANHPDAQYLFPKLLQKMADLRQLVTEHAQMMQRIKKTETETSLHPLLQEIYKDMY
Description: as §1, §2, §3, §4, §5

Row | Structure (SMILES) | Kd (PPARα) [µM] | Kd (PPARγ) [µM] | Kd (PPARδ) [µM]
1 | CCCCN1C(=O)/C(=N/NC(=O)Nc2ccccc2)c2cc(SCCc3ccc(C(=O)O)cc3)ccc21 [Example 14, 4-{2-[3-((anilinocarbonyl)hydrazono)-2-oxo-1-butyl-2,3-dihydro-1H-indol-5-ylsulfanyl]ethyl}benzoic acid] | 2 | 1 | 0.12
2 | O=C(N/N=C1\C(=O)N(CCc2ccccc2)c2ccc(SCCc3ccc(C(=O)O)cc3)cc21)Nc1ccccc1 [Example 16, 4-{2-[3-((anilinocarbonyl)hydrazono)-2-oxo-1-phenethyl-2,3-dihydro-1H-indol-5-ylsulfanyl]ethyl}benzoic acid] | 2 | 0.5 | 4
3 | COC(=O)c1ccc(CCSc2ccc3c(c2)/C(=N\NC(=O)Nc2cccc(F)c2)C(=O)N3CCc2ccccc2)cc1 [Example 17, methyl 4-{2-[3-((3-fluoroanilinocarbonyl)hydrazono)-2-oxo-1-phenethyl-2,3-dihydro-1H-indol-5-ylsulfanyl]ethyl}benzoate] | 0.25 | 1 | –
4 | CCCCN1C(=O)/C(=N\NC(=O)Nc2cccc(F)c2)c2cc(SCCc3ccc(C(=O)O)cc3)ccc21 [Example 18, 4-{2-[3-((3-fluoroanilinocarbonyl)hydrazono)-2-oxo-1-butyl-2,3-dihydro-1H-indol-5-ylsulfanyl]ethyl}benzoic acid] | 2 | 0.5 | 0.25
5 | CCCCCCCN1C(=O)/C(=N\NC(=O)Nc2cccc(C(F)(F)F)c2)c2cc(SCCc3ccc(C(=O)O)cc3)ccc21 [Example 20, 4-{2-[3-((3-trifluoromethylanilinocarbonyl)hydrazono)-2-oxo-1-heptyl-2,3-dihydro-1H-indol-5-ylsulfanyl]ethyl}benzoic acid] | 2 | 1 | 0.5
6 | CCCCCCCN1C(=O)C(=NNC(=O)Nc2ccccc2Cl)c2cc(SCCc3ccc(C(=O)O)cc3)ccc21 [Example 22, 4-{2-[3((2-chloroanilinocarbonyl)hydrazono)-2-oxo-1-heptyl-2,3-dihydro-1H-indol-5-ylsulfanyl]ethyl}benzoic acid] | 2 | 1 | 0.06
7 | O=C(N/N=C1/C(=O)N(CCc2ccccc2)c2ccc(SCCc3ccc(C(=O)O)cc3)cc21)Nc1ccc(C(F)(F)F)cc1Cl [Example 35, 4-{2-[3((2-chloro-4-trifluoromethylanilinocarbonyl)hydrazono)-2-oxo-1-phenethyl-2,3-dihydro-1H-indol-5-ylsulfanyl]ethyl}benzoic acid] | 8 | 0.25 | 0.5
8 | CCCCCCN1C(=O)/C(=N/NC(=O)Nc2ccccc2)c2cc(SCCCc3ccc(C(=O)O)cc3)ccc21 [Example 62, 4-[3-(3-((anilinocarbonyl)hydrazono)-2-oxo-1-hexyl-2,3-dihydro-1H-indol-5-ylsulfanyl)propyl]benzoic acid] | – | 4 | 0.5
9 | CCCCCCN1C(=O)/C(=N/NC(=O)Nc2ccc(F)cc2)c2cc(SCCCc3ccc(C(=O)O)cc3)ccc21 [Example 74, 4-[3-(3-((4-fluoroanilinocarbonyl)hydrazono)-2-oxo-1-hexyl-2,3-dihydro-1H-indol-5-ylsulfanyl)propyl]benzoic acid] | 4 | 4 | 0.25
10 | CCCCCCCN1C(=O)/C(=N\NC(=O)Nc2ccccc2Cl)c2cc(SCCc3ccc(C(=O)O)cc3)ccc21 [Example 84, 4-{2-[3-((2-chloroanilino)carbonylhydrazono)-2-oxo-1-heptyl-2,3-dihydro-1H-indol-5-ylsulfanyl]ethyl}benzoic acid] | 0.5 | 1 | 0.03
